In patent US20230019236A1, “PROTEIN TYROSINE PHOSPHATASE INHIBITORS AND METHODS OF USE THEREOF” (Calico Life Sciences LLC, priority 2019, published 2023):

Target: T1, His tagged full-length PTP1B protein (Homo sapiens, UniProt P18031)
T1 construct: made in house
T1 sequence (P18031 with tags, fused parts or gaps): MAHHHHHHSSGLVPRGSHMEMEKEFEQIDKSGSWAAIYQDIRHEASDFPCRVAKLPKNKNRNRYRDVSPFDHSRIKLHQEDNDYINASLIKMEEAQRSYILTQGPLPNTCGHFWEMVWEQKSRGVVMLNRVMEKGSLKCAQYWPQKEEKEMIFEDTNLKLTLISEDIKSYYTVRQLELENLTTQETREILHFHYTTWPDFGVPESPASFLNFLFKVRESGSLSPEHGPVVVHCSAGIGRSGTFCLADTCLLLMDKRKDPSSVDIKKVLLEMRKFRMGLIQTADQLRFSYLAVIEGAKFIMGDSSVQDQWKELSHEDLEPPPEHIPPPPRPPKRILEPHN
Assay: Mobility Shift Assay (MSA) used to determine potency of PTP1B inhibitors
Assay type: biochemical
Conditions: Table 2
Procedure: The enzymatic assay used to determine activity is a mobility shift assay using a LabChip EZ Reader by Caliper Life Sciences. The enzymatic reaction was carried out in assay buffer (50 mM HEPES pH 7.5, 1 mM EGTA, 10 mM EDTA, 0.01% Tween® 20, and 2 mM DTT). […] The enzyme (at 0.5 nM) was incubated with compound for 10 minutes at room temperature. […] The % inhibition was then used to calculate the IC50 values.

Row | IC50 [nM] | Structure (SMILES)
1 | 10 to 100 | O=C1CN(c2c(O)cc3ccc(OCCN4CCOCC4)cc3c2F)S(=O)(=O)N1 [Compound 100, 5-{1-fluoro-3-hydroxy-7-[2-(morpholin-4-yl)ethoxy]naphthalen-2-yl}-1λ^6,2,5-thiadiazolidine-1,1,3-trione]
2 | 10 to 100 | O=C1CN(c2c(O)cc3ccc4occc4c3c2F)S(=O)(=O)N1 [Compound 104, 5-(9-fluoro-7-hydroxynaphtho[2,1-b]furan-8-yl)-1λ^6,2,5-thiadiazolidine-1,1,3-trione]
3 | 1 to 10 | O=C1CN(c2c(O)cc3ccc(OCCN4CCC4)cc3c2F)S(=O)(=O)N1 [Compound 105, 5-{7-[2-(azetidin-1-yl)ethoxy]-1-fluoro-3-hydroxynaphthalen-2-yl}-1λ^6,2,5-thiadiazolidine-1,1,3-trione]
4 | 1 to 10 | [2H]c1c(O)c(N2C([2H])([2H])C(=O)NS2(=O)=O)c(F)c2cc(OC)ccc12 [Compound 106, 5-[1-fluoro-3-hydroxy-7-methoxy(4-^2H)naphthalen-2-yl](4,4-2H2)-1λ^6,2,5-thiadiazolidine-1,1,3-trione]
5 | > 100 | CNc1ccc2cc(O)c(N3CC(=O)NS3(=O)=O)c(F)c2c1 [Compound 107, 5-[1-fluoro-3-hydroxy-7-(methylamino)naphthalen-2-yl]-1λ^6,2,5-thiadiazolidine-1,1,3-trione]
6 | 1 to 10 | N#CCCCCOc1ccc2cc(O)c(N3CC(=O)NS3(=O)=O)c(F)c2c1 [Compound 111, 5-{[8-fluoro-6-hydroxy-7-(1,1,4-trioxo-1λ^6,2,5-thiadiazolidin-2-yl)naphthalen-2-yl]oxy}pentanenitrile]
7 | 10 to 100 | O=C1CN(c2c(O)cc3ccc(OCCN4CCCCC4)cc3c2F)S(=O)(=O)N1 [Compound 112, 5-{1-fluoro-3-hydroxy-7-[2-(piperidin-1-yl)ethoxy]naphthalen-2-yl}-1λ^6,2,5-thiadiazolidine-1,1,3-trione]
8 | 1 to 10 | O=C1CN(c2c(O)cc3ccc(OCC4CCNCC4)cc3c2F)S(=O)(=O)N1 [Compound 114, 5-{1-fluoro-3-hydroxy-7-[(piperidin-4-yl)methoxy]naphthalen-2-yl}-1λ^6,2,5-thiadiazolidine-1,1,3-trione]
9 | 1 to 10 | CC(C)(CC#N)CCOc1ccc2cc(O)c(N3CC(=O)NS3(=O)=O)c(F)c2c1 [Compound 115, 5-{[8-fluoro-6-hydroxy-7-(1,1,4-trioxo-1λ^6,2,5-thiadiazolidin-2-yl)naphthalen-2-yl]oxy}-3,3-dimethylpentanenitrile]
10 | 10 to 100 | CC(C)(C)CCNc1ccc2cc(O)c(N3CC(=O)NS3(=O)=O)c(F)c2c1 [Compound 116, 5-{7-[(3,3-dimethylbutyl)amino]-1-fluoro-3-hydroxynaphthalen-2-yl}-1λ^6,2,5-thiadiazolidine-1,1,3-trione]
11 | 1 to 10 | COc1ccc2c(F)c(O)c(N3CC(=O)NS3(=O)=O)c(F)c2c1 [Compound 117, 5-(1,4-difluoro-3-hydroxy-7-methoxynaphthalen-2-yl)-1λ^6,2,5-thiadiazolidine-1,1,3-trione]
12 | 1 to 10 | [2H]C([2H])([2H])Oc1ccc2cc(O)c(N3CC(=O)NS3(=O)=O)c(F)c2c1 [Compound 118, 5-{1-fluoro-3-hydroxy-7-[(2H3)methyloxy]naphthalen-2-yl}-1λ^6,2,5-thiadiazolidine-1,1,3-trione]
13 | 1 to 10 | COCCOc1ccc2cc(O)c(N3CC(=O)NS3(=O)=O)c(F)c2c1 [Compound 119, 5-[1-fluoro-3-hydroxy-7-(2-methoxyethoxy)naphthalen-2-yl]-1λ^6,2,5-thiadiazolidine-1,1,3-trione]
14 | < 1 | CC(C)(C#N)CCOc1ccc2cc(O)c(N3CC(=O)NS3(=O)=O)c(F)c2c1 [Compound 120, 4-{[8-fluoro-6-hydroxy-7-(1,1,4-trioxo-1λ^6,2,5-thiadiazolidin-2-yl)naphthalen-2-yl]oxy}-2,2-dimethylbutanenitrile]
15 | 1 to 10 | [2H]C1([2H])C(=O)NS(=O)(=O)N1c1c(O)cc2ccc(OC)cc2c1F [Compound 123, 5-(1-fluoro-3-hydroxy-7-methoxynaphthalen-2-yl)(4,4-^2H2)-1λ^6,2,5-thiadiazolidine-1,1,3-trione]
16 | 10 to 100 | O=C1CN(c2c(O)cc3ccc(NCCNS(=O)(=O)C4CC4)cc3c2F)S(=O)(=O)N1 [Compound 125, N-(2-{[8-fluoro-6-hydroxy-7-(1,1,4-trioxo-1λ^6,2,5-thiadiazolidin-2-yl)naphthalen-2-yl]amino}ethyl)cyclopropanesulfonamide]

Row | IC50 [nM] | Structure (SMILES)
17 | 1 to 10 | CS(=O)(=O)N1CC(Nc2ccc3cc(O)c(N4CC(=O)NS4(=O)=O)c(F)c3c2)C1 [Compound 128, 5-(1-fluoro-3-hydroxy-7-{[1-(methanesulfonyl)azetidin-3-yl]amino}naphthalen-2-yl)-1λ^6,2,5-thiadiazolidine-1,1,3-trione]
18 | < 1 | N#CCCCOc1ccc2cc(O)c(N3CC(=O)NS3(=O)=O)c(F)c2c1 [Compound 129, 4-{[8-fluoro-6-hydroxy-7-(1,1,4-trioxo-1λ^6,2,5-thiadiazolidin-2-yl)naphthalen-2-yl]oxy}butanenitrile]
19 | < 1 | O=C1CN(c2c(O)cc3ccc(-c4cnn(CC5CC5)c4)cc3c2F)S(=O)(=O)N1 [Compound 132, 5-{7-[1-(cyclopropylmethyl)-1H-pyrazol-4-yl]-1-fluoro-3-hydroxynaphthalen-2-yl}-1λ^6,2,5-thiadiazolidine-1,1,3-trione]
20 | 1 to 10 | O=C1CN(c2c(O)cc3ccc(OCc4cn[nH]c4)cc3c2F)S(=O)(=O)N1 [Compound 133, 5-{1-fluoro-3-hydroxy-7-[(1H-pyrazol-4-yl)methoxy]naphthalen-2-yl}-1λ6,2,5-thiadiazolidine-1,1,3-trione]
21 | 10 to 100 | O=C1CN(c2c(O)cc3ccc(C(=O)NCC4CC4)cc3c2F)S(=O)(=O)N1 [Compound 136, N-(cyclopropylmethyl)-8-fluoro-6-hydroxy-7-(1,1,4-trioxo-1λ^6,2,5-thiadiazolidin-2-yl)naphthalene-2-carboxamide]
22 | 1 to 10 | O=C1CN(c2c(O)cc3ccc(OCCNCCOC(F)(F)F)cc3c2F)S(=O)(=O)N1 [Compound 137, 5-[1-fluoro-3-hydroxy-7-(2-{[2-(trifluoromethoxy)ethyl]amino}ethoxy)naphthalen-2-yl]-1λ^6,2,5-thiadiazolidine-1,1,3-trione]
23 | 10 to 100 | COCCNCCOc1ccc2cc(O)c(N3CC(=O)NS3(=O)=O)c(F)c2c1 [Compound 138, 5-(1-fluoro-3-hydroxy-7-{2-[(2-methoxyethyl)amino]ethoxy}naphthalen-2-yl)-1λ^6,2,5-thiadiazolidine-1,1,3-trione]
24 | 10 to 100 | CNCCCc1ccc2cc(O)c(N3CC(=O)NS3(=O)=O)c(F)c2c1 [Compound 139, 5-{1-fluoro-3-hydroxy-7-[3-(methylamino)propyl]naphthalen-2-yl}-1λ^6,2,5-thiadiazolidine-1,1,3-trione]
25 | 10 to 100 | CCNCCCc1ccc2cc(O)c(N3CC(=O)NS3(=O)=O)c(F)c2c1 [Compound 140, 5-{7-[3-(ethylamino)propyl]-1-fluoro-3-hydroxynaphthalen-2-yl}-1λ^6,2,5-thiadiazolidine-1,1,3-trione]
26 | 1 to 10 | CP(C)(=O)c1ccc(-c2ccc3cc(O)c(N4CC(=O)NS4(=O)=O)c(F)c3c2)s1 [Compound 141, 5-{7-[5-(dimethylphosphoryl)thiophen-2-yl]-1-fluoro-3-hydroxynaphthalen-2-yl}-1λ^6,2,5-thiadiazolidine-1,1,3-trione]
27 | 10 to 100 | O=C1CN(c2c(O)cc3ccc(OCCNC4CC4)cc3c2F)S(=O)(=O)N1 [Compound 142, 5-{7-[2-(cyclopropylamino)ethoxy]-1-fluoro-3-hydroxynaphthalen-2-yl}-1λ^6,2,5-thiadiazolidine-1,1,3-trione]
28 | 10 to 100 | CNCCOc1ccc2cc(O)c(N3CC(=O)NS3(=O)=O)c(F)c2c1 [Compound 143, 5-{1-fluoro-3-hydroxy-7-[2-(methylamino)ethoxy]naphthalen-2-yl}-1λ^6,2,5-thiadiazolidine-1,1,3-trione]
29 | 10 to 100 | CCNCCOc1ccc2cc(O)c(N3CC(=O)NS3(=O)=O)c(F)c2c1 [Compound 144, 5-{7-[2-(ethylamino)ethoxy]-1-fluoro-3-hydroxynaphthalen-2-yl}-1λ^6,2,5-thiadiazolidine-1,1,3-trione]
30 | 10 to 100 | CC(C)NCCOc1ccc2cc(O)c(N3CC(=O)NS3(=O)=O)c(F)c2c1 [Compound 145, 5-(1-fluoro-3-hydroxy-7-{2-[(propan-2-yl)amino]ethoxy}naphthalen-2-yl)-1λ^6,2,5-thiadiazolidine-1,1,3-trione]
31 | 1 to 10 | CCP(=O)(CC)CCCOc1ccc2cc(O)c(N3CC(=O)NS3(=O)=O)c(F)c2c1 [Compound 146, 5-{7-[3-(diethylphosphoryl)propoxy]-1-fluoro-3-hydroxynaphthalen-2-yl}-1λ^6,2,5-thiadiazolidine-1,1,3-trione]
32 | > 100 | CC(C)CCNc1ccc2c(F)c(O)c(N3CC(=O)NS3(=O)=O)c(F)c2c1 [Compound 148, 5-{1,4-difluoro-3-hydroxy-7-[(3-methylbutyl)amino]naphthalen-2-yl}-1λ^6,2,5-thiadiazolidine-1,1,3-trione]

Row | Structure (SMILES) | IC50 [nM]
33 | C[C@H](O)CCOc1ccc2cc(O)c(N3CC(=O)NS3(=O)=O)c(F)c2c1 [Compound 147, 5-{1-fluoro-3-hydroxy-7-[(3S)-3-hydroxybutoxy]naphthalen-2-yl}-1λ^6,2,5-thiadiazolidine-1,1,3-trione] | 1 to 10
